Assay results published in patent US8952024B2, “Herbicidal pyrimidone derivatives” (E I du Pont de Nemours and Company, priority 2009, dated 2015).
Like-named read-outs stand apart in the source and are kept apart here.

Legend:
Type in all cases: in vivo
[1] = test system: pigweed (Amaranthus retroflexus); test: Test A pre-/postemergence plant response; details: Amaranthus retroflexus, 240 h, read-out: Plant response rating, Pigweed; for pest or weed control at 125 g/ha: 125 g ai/ha; for pest or weed control at 500 g/ha: 500 g ai/ha, approx. ten days
In short: (§1)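 Greenhouse trial, ~10 days. Soil (loam/sand) sprayed preemergence after seeding; emerged plants (1–2 leaf, 2–10 cm) sprayed postemergence in parallel. Response = visual injury vs untreated control, 0–100.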

[2] = test system: corn (Zea mays); test: Test A pre-/postemergence plant response; details: Zea mays, 240 h; for Corn plant response rating (crop injury, 0 = no effect, 100 = complete kill) at 125 g/ha: 125 g ai/ha; for Corn plant response rating (crop injury, 0 = no effect, 100 = complete kill) at 500 g/ha: 500 g ai/ha, approx. ten days
In short: as §1

[3] = test system: wheat (Triticum aestivum); test: Test A pre-/postemergence plant response; details: Triticum aestivum, 240 h, read-out: Plant response rating, Wheat; for plant injury at 125 g/ha: 125 g ai/ha; for plant injury at 500 g/ha: 500 g ai/ha, approx. ten days
In short: as §1

[4] = test system: barnyardgrass (Echinochloa crus-galli); test: Test A pre-/postemergence plant response; details: Echinochloa crus-galli, 240 h, read-out: Plant response rating, Barnyardgrass; for pest or weed control at 125 g/ha: 125 g ai/ha; for pest or weed control at 500 g/ha: 500 g ai/ha, approx. ten days
In short: as §1

[5] = test system: morningglory (Ipomoea spp.); test: Test A pre-/postemergence plant response; details: Ipomoea, 240 h, read-out: Plant response rating, Morningglory; for pest or weed control at 125 g/ha: 125 g ai/ha
In short: as §1

[6] = test system: velvetleaf (Abutilon theophrasti); test: Test A pre-/postemergence plant response; details: Abutilon theophrasti, 240 h, read-out: Plant response rating, Velvetleaf; for pest or weed control at 125 g/ha: 125 g ai/ha; for pest or weed control at 500 g/ha: 500 g ai/ha, approx. ten days
In short: as §1

[7] = test system: large crabgrass (Digitaria sanguinalis); test: Test A pre-/postemergence plant response; details: Digitaria sanguinalis, 240 h, read-out: Plant response rating, Crabgrass, Large; for pest or weed control at 125 g/ha: 125 g ai/ha; for pest or weed control at 500 g/ha: 500 g ai/ha, approx. ten days
In short: as §1

[8] = test system: giant foxtail (Setaria faberii); test: Test A pre-/postemergence plant response; details: Setaria faberi, 240 h, read-out: Plant response rating, Foxtail, Giant; for pest or weed control at 125 g/ha: 125 g ai/ha; for pest or weed control at 500 g/ha: 500 g ai/ha, approx. ten days
In short: as §1

[9] = test system: cocklebur (Xanthium strumarium); test: Test B pre-/postemergence plant response
In short: (§2)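 Pre-em in loam/sand; post-em at 1–4 leaf (2–18 cm) in peat mix. Solvent + surfactant formulation. Greenhouse 13–15 d; visual % control vs untreated, 0–100.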

[10] = test system: green foxtail (Setaria viridis); test: Test B pre-/postemergence plant response
In short: as §2

[11] = test system: giant foxtail (Setaria faberii); test: Test B pre-/postemergence plant response
In short: as §2

[12] = post-emergence, Postemergence, 0 to 100 scale where 0 is no effect and 100 is complete control
[13] = post-emergence, Postemergence, 0 to 100 scale, 0 = no effect, 100 = complete control
[14] = pre-emergence, Preemergence, 0 to 100 scale, 0 = no effect, 100 = complete control
[15] = pre-emergence, Preemergence, visual injury, 0 to 100 scale (0 no effect, 100 complete control)
[16] = 62 g ai/ha, postemergence, 0 is no effect, 100 is complete control, 13 to 15 days

O=C1CCCC(O)=C1C(=O)c1cnc(-c2ccccc2)n(C2CCCCC2)c1=O [Compound 128, 3-cyclohexyl-5-[(2-hydroxy-6-oxo-1-cyclohexen-1-yl)carbonyl]-2-phenyl-4(3H)-pyrimidinone]
pest or weed control at 125 g/ha [1, 12]: 100% | pest or weed control at 500 g/ha [1, 13]: 100% | pest or weed control at 125 g/ha [1, 14]: 80% | pest or weed control at 500 g/ha [1, 15]: 100% | Corn plant response rating (crop injury, 0 = no effect, 100 = complete kill) at 125 g/ha [2, 12]: 20% | Corn plant response rating (crop injury, 0 = no effect, 100 = complete kill) at 500 g/ha [2, 13]: 60% | Corn plant response rating (crop injury, 0 = no effect, 100 = complete kill) at 125 g/ha [2, 14]: 0% | Corn plant response rating (crop injury, 0 = no effect, 100 = complete kill) at 500 g/ha [2, 15]: 0% | plant injury at 125 g/ha [3, 12]: 0% | plant injury at 500 g/ha [3, 13]: 20% | plant injury at 125 g/ha [3, 14]: 0% | plant injury at 500 g/ha [3, 15]: 30% | pest or weed control at 125 g/ha [4, 12]: 100% | pest or weed control at 500 g/ha [4, 13]: 100% | pest or weed control at 125 g/ha [4, 14]: 10% | pest or weed control at 500 g/ha [4, 15]: 100% | pest or weed control at 125 g/ha [5, 12]: 100% | pest or weed control at 500 g/ha ([5]; post-emergence, Postemergence, 500 g ai/ha, 0 to 100 scale, 0 = no effect, 100 = complete control, approx. ten days): 100% | pest or weed control at 125 g/ha [5, 14]: 80% | pest or weed control at 125 g/ha [6, 12]: 100% | pest or weed control at 500 g/ha [6, 13]: 100% | pest or weed control at 125 g/ha [6, 14]: 80% | pest or weed control at 500 g/ha [6, 15]: 100% | pest or weed control at 125 g/ha [7, 12]: 90% | pest or weed control at 500 g/ha [7, 13]: 90% | pest or weed control at 125 g/ha [7, 14]: 80% | pest or weed control at 500 g/ha [7, 15]: 100% | pest or weed control at 125 g/ha [8, 12]: 90% | pest or weed control at 500 g/ha [8, 13]: 90% | pest or weed control at 125 g/ha [8, 14]: 60% | pest or weed control at 500 g/ha [8, 15]: 90% | Cocklebur plant response rating (0 to 100 scale) [9, 16]: 98 | pest or weed control at 31 g/ha ([9]; Xanthium strumarium, post-emergence, Postemergence, 31 g ai/ha, 0 to 100 scale (0 no effect, 100 complete control), read-out: Plant response rating, Cocklebur): 98% | pest or weed control at 125 g/ha ([9]; Xanthium strumarium, post-emergence, Postemergence, 125 g ai/ha, scale 0 to 100 (0 no effect, 100 complete control), read-out: Plant response rating, Cocklebur): 100% | pest or weed control at 250 g/ha ([9]; Xanthium strumarium, post-emergence, Postemergence, 250 g ai/ha, scale 0 to 100 (0 no effect, 100 complete control), 13 to 15 days, read-out: Plant response rating, Cocklebur): 100% | Foxtail, Green plant response rating (0 to 100 scale) [10, 16]: 95 | pest or weed control at 31 g/ha ([10]; Setaria viridis, post-emergence, Postemergence, 31 g ai/ha, 0 to 100 scale (0 no effect, 100 complete control), read-out: Plant response rating, Foxtail, Green): 85% | pest or weed control at 125 g/ha ([10]; Setaria viridis, post-emergence, Postemergence, 125 g ai/ha, scale 0 to 100 (0 no effect, 100 complete control), read-out: Plant response rating, Foxtail, Green): 95% | pest or weed control at 250 g/ha ([10]; Setaria viridis, post-emergence, Postemergence, 250 g ai/ha, scale 0 to 100 (0 no effect, 100 complete control), 13 to 15 days, read-out: Plant response rating, Foxtail, Green): 98% | Foxtail, Giant plant response rating (0 to 100 scale) [11, 16]: 95 | pest or weed control at 31 g/ha ([11]; Setaria faberi, post-emergence, Postemergence, 31 g ai/ha, 0 to 100 scale (0 no effect, 100 complete control), read-out: Plant response rating, Foxtail, Giant): 95% | pest or weed control at 125 g/ha ([11]; Setaria faberi, post-emergence, Postemergence, 125 g ai/ha, scale 0 to 100 (0 no effect, 100 complete control), read-out: Plant response rating, Foxtail, Giant): 98% | pest or weed control at 250 g/ha ([11]; Setaria faberi, post-emergence, Postemergence, 250 g ai/ha, scale 0 to 100 (0 no effect, 100 complete control), 13 to 15 days, read-out: Plant response rating, Foxtail, Giant): 98%
